Source: patent publication US4680386A, “6-O-methylerythromycin a derivative” (Taisho Pharmaceutical Co., Ltd., priority 1984, dated 1987)
≈ marks a conversion by molar mass, not a printed value. Where two headings read alike, the source gives them in different places.

Legend:
[1] = tested on: Staphylococcus aureus Smith No. 4; assay: In vivo antibacterial activity, oral treatment of intraperitoneally infected mice; parameters: species or system ICR mice; conditions: one hour after infection, 7-day survival, Litchfield-Wilcoxon, 95% confidence limits given
[2] = tested on: Staphylococcus aureus Smith No. 4; assay: as above; parameters: species or system ICR mice; conditions: for number of mice surviving for 7 days after the infection: one hour after infection, 10 mice per group
Description: 10 male ICR mice (Charles River) being of the average body weight 23 g were used for each group. Staphylococcus aureus Smith No. 4 was grown on heart infusion agar medium at 37° C. for 18 hours. The bacteria were suspended in BSG (containing 8.5 g of NaCl, 300 mg of KH2 PO4, 600 mg of Na2 HPO4, 100 mg of gelatin and 1000 ml of water) to show 6×10^7 cfu/ml (containing 5% of mucin). The bacterial suspension (0.5 ml) was injected intraperitoneally to each groups of mice for infection. Erythromycin A and erythromycin A 9-oxime were used as control. An hour after infection, each compound was administered orally to different groups of animals in the specified amounts to study its therapeutic effect.
The therapeutic effect of the drugs was judged by the […] value calculated from the number of mice surviving for 7 days after the infection according to the method of Litchfield-Wilcoxon.

[3] = tested on: Streptococcus epidermidis sp-al-l; assay: In vitro antibacterial activity (MIC method specified by the Japan Chemotherapeutic Society); type: cell-based; conditions: read-out: MIC value (minimum inhibitory concentration)
Description: (§1) The antibacterial activity of the compound I against various bacteria was measured using sensitive media (produced by Eiken Co.) according to the MIC method specified by the Japan Chemotherapeutic Society. Erythromycin A was used as a control.

[4] = tested on: Staphylococcus aureus FDA 209P; assay: as above; type: cell-based; conditions: FDA209P, read-out: MIC value (minimum inhibitory concentration)
Description: as §1

[5] = tested on: Streptococcus faecalis 8043; assay: as above; type: cell-based
Description: as §1

[6] = tested on: Escherichia coli NIHJ JC-2; assay: as above; type: cell-based; conditions: NIHJJC2, sensitive media (Eiken), read-out: MIC value (minimum inhibitory concentration)
Description: as §1

[7] = tested on: Staphylococcus aureus Smith No. 4; assay: as above; type: cell-based; conditions: read-out: MIC value (minimum inhibitory concentration)
Description: as §1

[8] = tested on: Baccilus cereus ATCC 9634; assay: as above; type: cell-based; conditions: sensitive media (Eiken), read-out: MIC value (minimum inhibitory concentration)
Description: as §1

[9] = tested on: Bacillus subtilis ATCC 6633; assay: as above; type: cell-based
Description: as §1

bacteria = assay: Antibacterial activity (general statement); conditions: general statement in words

CC[C@H]1OC(=O)[C@H](C)[C@@H](O[C@H]2C[C@@](C)(OC)[C@@H](O)[C@H](C)O2)[C@H](C)[C@@H](O[C@@H]2O[C@H](C)C[C@H](N(C)C)[C@H]2O)[C@](C)(OC)C[C@@H](C)C(=NO)[C@H](C)[C@@H](O)[C@]1(C)O [Compound I, 6-O-methylerythromycin A 9-oxime]
ED50 [1]: 0.516 mg/mouse | number of mice surviving for 7 days after the infection ([2]; 0.2 mg/mouse): 1/10 | number of mice surviving for 7 days after the infection ([2]; 0.4 mg/mouse): 4/10 | number of mice surviving for 7 days after the infection ([2]; 0.8 mg/mouse): 7/10 | antibacterial activity by oral administration ([2]; compared with erythromycin A or erythromycin A 9-oxime): far superior to erythromycin A or erythromycin A 9-oxime | MIC ([3]; Streptococcus epidermidis sp-al-l, sensitive media (Eiken)): 0.2 µg/mL (≈ 0.262 µM) | MIC ([4]; Staphylococcus aureus FDA 209P, sensitive media (Eiken)): 0.1 µg/mL (≈ 0.131 µM) | MIC ([5]; Enterococcus faecalis, Streptococcus faecalis 8043, sensitive media (Eiken), read-out: MIC value (minimum inhibitory concentration)): ≤ 0.05 µg/mL | MIC [6]: 50 µg/mL (≈ 65.5 µM) | MIC ([7]; Staphylococcus aureus Smith No. 4, sensitive media (Eiken)): 0.1 µg/mL (≈ 0.131 µM) | MIC [8]: 0.1 µg/mL (≈ 0.131 µM) | MIC ([9]; ATCC6633, Bacillus subtilis ATCC 6633, sensitive media (Eiken), read-out: MIC value (minimum inhibitory concentration)): 0.1 µg/mL (≈ 0.131 µM) | antibacterial activity (bacteria): strong antibacterial activity

CC[C@H]1OC(=O)[C@H](C)[C@@H](O[C@H]2C[C@@](C)(OC)[C@@H](O)[C@H](C)O2)[C@H](C)[C@@H](O[C@@H]2O[C@H](C)C[C@H](N(C)C)[C@H]2O)[C@](C)(O)C[C@@H](C)C(=O)[C@H](C)[C@@H](O)[C@]1(C)O [Erythromycin A, erythromycin A]
ED50 [1]: 1.517 mg/mouse | number of mice surviving for 7 days after the infection ([2]; 1 mg/mouse): 1/10 | number of mice surviving for 7 days after the infection ([2]; 2 mg/mouse): 8/10 | number of mice surviving for 7 days after the infection ([2]; 4 mg/mouse): 10/10 | MIC ([3]; Streptococcus): 0.2 µg/mL (≈ 0.273 µM) | MIC ([4]; Staphylococcus aureus): 0.2 µg/mL (≈ 0.273 µM) | MIC ([5]; Enterococcus faecalis, 8043, read-out: MIC value (minimum inhibitory concentration)): ≤ 0.05 µg/mL | MIC [6]: 50 µg/mL (≈ 68.1 µM) | MIC ([7]; Staphylococcus aureus): 0.1 µg/mL (≈ 0.136 µM) | MIC [8]: 0.2 µg/mL (≈ 0.273 µM) | MIC ([9]; Bacillus subtilis, ATCC6633, read-out: MIC value (minimum inhibitory concentration)): 0.1 µg/mL (≈ 0.136 µM)

CC[C@H]1OC(=O)[C@H](C)[C@@H](O[C@H]2C[C@@](C)(OC)[C@@H](O)[C@H](C)O2)[C@H](C)[C@@H](O[C@@H]2O[C@H](C)C[C@H](N(C)C)[C@H]2O)[C@](C)(O)C[C@@H](C)C(=NO)[C@H](C)[C@@H](O)[C@]1(C)O [Erythromycin A 9-oxime, erythromycin A 9-oxime]
ED50 [1]: 1.418 mg/mouse | number of mice surviving for 7 days after the infection ([2]; 0.5 mg/mouse): 0/10 | number of mice surviving for 7 days after the infection ([2]; 1 mg/mouse): 3/10 | number of mice surviving for 7 days after the infection ([2]; 2 mg/mouse): 7/10
